Data from article PMC9849758, “Chemically diverse activity-based probes with unexpected inhibitory mechanisms targeting trypsin-like serine proteases” (Frontiers in Chemistry, 2023).
Structures can show the parent of a compound that is named as a salt. Where two headings read alike, the source gives them in different places.

Columns and labels:
Assay type in all cases: biochemical
[1] = target: T1, uPA (recombinant urokinase plasminogen activator) (Homo sapiens, UniProt P00749); test: IC50 determination, spectrophotometric protease assay
T1 construct: purchased HYPHEN BioMed
Experimental: (§1) The IC50 values were determined using a spectrophotometric assay. All the experiments were conducted in duplicate. The readout consisted of evaluating the protease-mediated release of the chromophore para-nitroaniline (pNA) or fluorophore 7-amino-4-methyl coumarin (AMC) moieties from the respective substrates. Enzymatic activity was measured for 30 min at 37°C. All compounds were initially screened at three concentrations (10, 1, and .1 μM) to estimate the range of the IC50 value. Those which were able to reduce protease activity by at least 50% at a concentration of 10 μM were submitted to an exact IC50 determination. […] A third independent experiment was performed when the standard deviation of the two independent experiments was higher than […]. IC50 values were obtained by fitting the data with the four-parameter logistics equation using GraphPad Prism 9.
(§2) The conditions for each protease are described as follows, the concentration of substrate used was at the corresponding Km.

[2] = target: T2, Cathepsin G (cathepsin G human neutrophil) (Homo sapiens, UniProt P08311); test: as above
T2 construct: Cathepsin G (cathepsin G human neutrophil, Sigma-Aldrich); purchased Sigma-Aldrich; host or cells: human neutrophil
T2 sequence (P08311 21-255): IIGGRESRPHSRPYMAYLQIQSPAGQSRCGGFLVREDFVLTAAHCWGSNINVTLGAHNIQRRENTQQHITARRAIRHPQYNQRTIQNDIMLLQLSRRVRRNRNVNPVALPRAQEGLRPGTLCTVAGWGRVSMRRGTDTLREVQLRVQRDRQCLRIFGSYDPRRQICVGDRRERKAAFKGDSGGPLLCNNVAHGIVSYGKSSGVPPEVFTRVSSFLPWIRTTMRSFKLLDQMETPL
Experimental: as §1, §2

[3] = target: T3, β-tryptase (recombinant tryptase β-2) (Homo sapiens, UniProt P20231); test: as above
T3 construct: purchased EnzoLife Sciences
T3 sequence (P20231 31-275): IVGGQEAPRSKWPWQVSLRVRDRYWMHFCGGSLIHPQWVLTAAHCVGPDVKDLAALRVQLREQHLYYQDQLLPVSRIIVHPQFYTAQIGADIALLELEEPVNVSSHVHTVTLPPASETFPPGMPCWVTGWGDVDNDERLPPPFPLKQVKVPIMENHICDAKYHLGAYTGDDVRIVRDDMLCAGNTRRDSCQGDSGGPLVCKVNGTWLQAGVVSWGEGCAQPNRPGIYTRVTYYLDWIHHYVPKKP
Experimental: as §1, §2

[4] = target: T4, Thrombin (recombinant thrombin) (Homo sapiens, UniProt P00734); test: as above
T4 construct: purchased R&D
Experimental: as §1, §2

[5] = target: T5, Trypsin-3 (recombinant trypsin-3) (Homo sapiens, UniProt P35030); test: as above
T5 construct: purchased R&D
T5 sequence (P35030 1-304): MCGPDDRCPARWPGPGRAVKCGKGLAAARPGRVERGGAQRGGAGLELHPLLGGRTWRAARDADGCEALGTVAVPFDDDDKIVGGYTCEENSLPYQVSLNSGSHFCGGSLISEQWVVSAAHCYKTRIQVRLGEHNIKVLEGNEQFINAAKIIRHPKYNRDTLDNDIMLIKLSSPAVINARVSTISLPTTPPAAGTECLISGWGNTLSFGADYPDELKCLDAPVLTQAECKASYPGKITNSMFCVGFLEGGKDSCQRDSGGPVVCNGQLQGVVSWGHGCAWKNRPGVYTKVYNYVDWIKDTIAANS
Experimental: as §1, §2

[6] = target: T6, TLCK-treated pancreatic bovine chymotrypsin (Bos taurus, UniProt P00766); test: as above
T6 construct: TLCK-treated pancreatic bovine chymotrypsin (Sigma-Aldrich); purchased Sigma-Aldrich; host or cells: bovine pancreas
Experimental: as §1, §2

[7] = target: T7, uPA (Homo sapiens, UniProt P00749); test: Jump dilution, determination of inhibition type; details: inhibitor at 10 times IC50, 15 min, diluted 10-fold or 100-fold; Rev./Irrev.
T7 construct: purchased HYPHEN BioMed
Experimental: The dissociation of the enzyme-inhibitor complex was monitored by substrate hydrolysis over time ([Joossens et al., 2006]).
Because ABPs are designed to be irreversible serine protease inhibitors, the IC50 is exclusively used as a first discriminatory evaluation. When an inhibitor is irreversible, its IC50 value not only depends on the substrate and enzyme concentration but also on the time of incubation with the enzyme before the reaction is started by adding the substrate. […] The progress curve in the presence of an irreversible inhibitor will show final velocities equal to zero (Figure 6C). In contrast, for a reversible inhibitor, progress curves have a non-zero final steady-state velocity (Figure 6A) ([McWhirter, 2021]). To corroborate the inhibitory mechanism of the compounds, jump-dilution assays were performed. These use an inhibitor concentration of 10-fold the IC50 for the incubation, and a posteriori, the reaction mixture is diluted 10-fold or 100-fold before adding the substrate. In the case of an irreversible inhibitor, enzymatic activity is not regained (Figure 6D), whereas, in the case of a reversible compound, a slow release of the inhibitor and a gradual increase of the enzymatic activity rate is observed (Figure 6B) ([Copeland, 2013]; [McWhirter, 2021]). The jump-dilution assays confirmed the behavior described by the progress curves.
2.2.2 Jump dilution results
Supplementary Table 2. Jump dilution of selected alkyne and desthiobiotin probes against a panel of trypsin-like serine proteases. […]
# R R DtBa 3 tryptase Thrombin uPA CatG
32b H Alk Irrev. Irrev. Rev. Irrev. Rev.
45b DtB Irrev. Irrev. Rev. N.D. N.D.
33b Alk Irrev. Irrev. Rev. Irrev. Rev.
46b Cl DtB Irrev. Irrev. Rev. N.D. N.D.
34b H Alk Rev. Rev. Rev. Irrev. Rev.
50b DtB Rev. Rev. Rev. Irrev. Rev.
35b Alk Rev. Rev. Rev. Irrev. Rev.
52b NHCOMe DtB Rev. Rev. Rev. Irrev. Rev.
36b Alk Rev. Rev. Rev. Irrev. Rev.
54b Cl DtB Rev. Rev. Rev. Irrev. Rev.
37b Alk Irrev. Irrev. N.D. Irrev. Irrev.
55b H DtB Irrev. Irrev. N.D. Irrev. Irrev.
38b Alk Irrev. Irrev. N.D. Irrev. Irrev.
56b NHCOMe DtB Irrev. Irrev. N.D. Irrev. Irrev.
39b Alk Irrev. Irrev. N.D. Irrev. Rev.
57b Cl DtB Irrev. Irrev. N.D. Irrev. Rev.
41b H Alk Irrev. Irrev. Irrev. N.D. N.D.
31b Pro-Lys H Alk Irrev. Irrev. Irrev. Irrev. N.D. a Alk: ABP precursor bearing an alkyne; DtB: desthiobiotin probe b Panel of serine proteases abbreviations: urokinase plasminogen activator (uPA), cathepsin G (catG) N.D.: IC50 is greater than 10µM, and jump dilution was not performed
2.2.3 Progress curves and Jump dilution experiments
Kinetic assays were performed in the following manner. The inhibitor was mixed with the substrate, and the buffer solution with the enzyme was added at the time zero. The progress curves show the release of para-nitroaniline (pNA) or 7-amino-4-methyl coumarin (AMC) as a function of time.
To monitor the dissociation of the inhibitor-enzyme, aliquots of the enzyme were incubated at 37 °C without and with the inhibitor at a concentration 10 times higher than its IC 50. The enzyme […]
min, the aliquots were diluted 10-fold or 100-fold into the substrate concentration and assay buffer used for the IC50 determination. The dissociation of the enzyme-inhibitor complex was monitored by substrate hydrolysis over time. Blue lines represent the control where no inhibitor was present. Pink lines represent the assay with inhibitor.

[8] = read-out: uPA IC50, desthiobiotin probes, 15 min preincubation at 37°C, mean ± SD
[9] = read-out: CatG IC50, desthiobiotin probes, 15 min preincubation at 37°C, mean ± SD
[10] = read-out: β-tryptase IC50, desthiobiotin probes, 15 min preincubation at 37°C, mean ± SD
[11] = read-out: Thrombin IC50, desthiobiotin probes, 15 min preincubation at 37°C, mean ± SD
[12] = read-out: Trypsin-3 IC50, desthiobiotin probes, 15 min preincubation at 37°C, mean ± SD
[13] = read-out: ChTryp IC50, desthiobiotin probes, 15 min preincubation at 37°C, mean ± SD
[14] = alkyne probes, 15 min preincubation at 37°C, mean ± SD

| SMILES | IC50 [1, 8] [nM] | IC50 [2, 9] [nM] | IC50 [3, 10] [nM] | IC50 [4, 11] [nM] | IC50 [5, 12] [nM] | IC50 [6, 13] [nM] | uPA jump dilution result [7] | IC50 [1] [nM] | IC50 [2] [nM] | IC50 [3] [nM] | IC50 [4] [nM] | IC50 [5] [nM] | IC50 [6] [nM] | uPA IC50 [1, 14] | CatG IC50 [2, 14] |
| --- | --- | --- | --- | --- | --- | --- | --- | --- | --- | --- | --- | --- | --- | --- | --- |
| C[C@@H]1NC(=O)N[C@@H]1CCCCCC(=O)NCCOCCOCCOCCn1cc(CCCOC(=O)NC(CCCNC(=N)N)P(=O)(Oc2ccccc2)Oc2ccccc2)nn1 (stereo partly drawn) [45b] | > 10000 | > 10000 | 800 ± 50 | 610 ± 170 | 220 ± 20 | > 10000 | – | – | – | – | – | – | – | – | – |
| CC(=O)Nc1ccc(OP(=O)(Oc2ccc(NC(C)=O)cc2)C(NC(=O)OCCCc2cn(CCOCCOCCOCCNC(=O)CCCCC[C@H]3NC(=O)N[C@H]3C)nn2)c2ccc(NC(=N)N)cc2)cc1 (stereo partly drawn) [56b] | 5190 ± 80 | 620 ± 9 | 390 ± 100 | > 10000 | 220 ± 4 | > 10000 | Irrev. | – | – | – | – | – | – | – | – |
| C#CCCCOC(=O)NC(c1ccc(NC(=N)N)cc1)P(=O)(Oc1ccc(NC(C)=O)cc1)Oc1ccc(NC(C)=O)cc1 (stereo not drawn) [38b, Pent-4-yn-1-yl ((bis(4-acetamidophenoxy)phosphoryl)(4-guanidinophenyl)methyl) carbamate] | – | – | – | – | – | – | Irrev. | 1520 ± 400 | 130 ± 10 | 120 ± 20 | > 10000 | 40 ± 15 | > 10000 | – | – |
| C[C@@H]1NC(=O)N[C@@H]1CCCCCC(=O)NCCOCCOCCOCCn1cc(CCCOC(=O)NC(c2ccc(NC(=N)N)cc2)P(=O)(Oc2ccc(Cl)cc2)Oc2ccc(Cl)cc2)nn1 (stereo partly drawn) [57b] | 160 ± 40 | 120 ± 40 | 20 ± 0.2 | > 10000 | 180 ± 70 | > 10000 | Irrev. | – | – | – | – | – | – | – | – |
| C[C@@H]1NC(=O)N[C@@H]1CCCCCC(=O)NCCOCCOCCOCCn1cc(CCCOC(=O)NC(Cc2ccc(NC(=N)N)cc2)P(=O)(Oc2ccccc2)Oc2ccccc2)nn1 (stereo partly drawn) [50b, 3-(1-(18-((4R,5S)-5-methyl-2-oxoimidazolidin-4-yl)-13-oxo-3,6,9-trioxa-12-azaoctadecyl)-1H-1,2,3-triazol-4-yl)propyl (1-(diphenoxyphosphoryl)-2-(4-guanidinophenyl)ethyl)carbamate trifluoroacetate salt] | – | – | – | – | – | – | Irrev. | 20 ± 0.1 | 360 ± 4 | 360 ± 70 | 3520 ± 390 | 30 ± 10 | 1640 ± 500 | – | – |
| C[C@@H]1NC(=O)N[C@@H]1CCCCCC(=O)NCCOCCOCCOCCn1cc(CCCOC(=O)NC(CCCNC(=N)N)P(=O)(Oc2ccc(Cl)cc2)Oc2ccc(Cl)cc2)nn1 (stereo partly drawn) [46b] | 420 ± 50 | > 10000 | 40 ± 6 | 40 ± 6 | 70 ± 2 | > 10000 | – | – | – | – | – | – | – | – | – |
| C[C@@H]1NC(=O)N[C@@H]1CCCCCC(=O)NCCOCCOCCOCCn1cc(CCCOC(=O)NC(Cc2ccc(NC(=N)N)cc2)P(=O)(Oc2ccc(Cl)cc2)Oc2ccc(Cl)cc2)nn1 (stereo partly drawn) [54b] | – | – | – | – | – | – | Irrev. | 6 ± 0.1 | 120 ± 10 | 110 ± 9 | 200 ± 20 | 8 ± 2 | 5600 ± 1060 | – | – |
| C#CCCCOC(=O)NC(Cc1ccc(NC(=N)N)cc1)P(=O)(Oc1ccc(Cl)cc1)Oc1ccc(Cl)cc1 (stereo not drawn) [36b] | – | – | – | – | – | – | Irrev. | 5 ± 0.3 | 340 ± 8 | 70 ± 20 | 1770 ± 50 | < 1 | 3230 ± 1210 | – | – |
| C#CCCCOC(=O)NC(CCCNC(=N)N)P(=O)(Oc1ccccc1)Oc1ccccc1 (stereo not drawn) [32b] | – | – | – | – | – | – | Irrev. | 4800 ± 80 | 7570 ± 580 | 3740 ± 530 | 850 ± 130 | 30 ± 7 | > 10000 | – | – |
| C#CCCCOC(=O)NC(Cc1ccc(NC(=N)N)cc1)P(=O)(Oc1ccc(NC(C)=O)cc1)Oc1ccc(NC(C)=O)cc1 (stereo not drawn) [35b] | – | – | – | – | – | – | Irrev. | 5 ± 1 | 60 ± 6 | 50 ± 3 | 1110 ± 50 | < 1 | > 10000 | – | – |
| C#CCCCOC(=O)NC(CCCNC(=N)N)P(=O)(Oc1ccc(Cl)cc1)Oc1ccc(Cl)cc1 (stereo not drawn) [33b] | – | – | – | – | – | – | Irrev. | 250 ± 30 | 2760 ± 50 | 170 ± 10 | 110 ± 7 | 40 ± 8 | > 10000 | – | – |
| C#CCCCOC(=O)NC(C1CCN(C(=N)N)CC1)P(=O)(Oc1ccccc1)Oc1ccccc1 (stereo not drawn) [41b] | – | – | – | – | – | – | – | > 10000 | > 10000 | 8370 ± 440 | 30 ± 1 | 40 ± 2 | > 10000 | no inhibition | no inhibition |
| C#CCCCOC(=O)NC(c1ccc(NC(=N)N)cc1)P(=O)(Oc1ccc(Cl)cc1)Oc1ccc(Cl)cc1 (stereo not drawn) [39b, Pent-4-yn-1-yl ((bis(4-chlorophenoxy)phosphoryl)(4-guanidinophenyl)methyl)carbamate] | – | – | – | – | – | – | Irrev. | 220 ± 60 | 90 ± 22 | 70 ± 4 | > 10000 | 90 ± 9 | > 10000 | – | – |
| C#CCCCOC(=O)NC(Cc1ccc(NC(=N)N)cc1)P(=O)(Oc1ccccc1)Oc1ccccc1 (stereo not drawn) [34b] | – | – | – | – | – | – | Irrev. | – | 450 ± 20 | 630 ± 30 | 8490 ± 2250 | 1 ± 0.3 | > 10000 | – | – |
